# Values of other authors as cited in patent US6093730A, “Substituted isoquinoline-3-carboxamides, their preparation and their use as pharmaceuticals” (Hoechst Marion Roussel Deutschland GmbH, priority 1997, dated 2000).
# Assays:
# collagen biosynthesis = conditions: Franklin et al.; cited from earlier work
# liver = conditions: rats; Franklin 1997; cited from earlier work
compound,measurement,setting,value
O=C(O)CNC(=O)c1ncc2cc(Br)ccc2c1O [N-((7-bromo-4-hydroxy-isoquinolin-3-yl)carbonyl)glycine],in-vivo activity on collagen biosynthesis,collagen biosynthesis,in-vivo inhibition of collagen biosynthesis
same,toxic action on the liver,liver,toxic action on the liver (steatosis)
